“Also recorded” adds a separate entry of the source.
What was measured:
[1] = system: W/BF1 :(NZW×BXSB)F1 mice with spontaneous autoimmune disease; assay: Life-prolonging effect in autoimmune disease mice; assay type: in vivo
Source text: W/BF1 :(NZW×BXSB)F1 mice are mice with spontaneous autoimmune disease. They are known as an animal model of lupus nephritis accompanied, with high frequency, by hypertension and myocardial infarction [Hang, L. M., et al., J. Exp. Med., 154, 216-221 (1981)]. They develop anti-platelet antibodies with increasing age, showing marked thrombocytopenia, and are used as an animal model of idiopathic thrombocytopenic purpura (ITP) as well [Oyaizu, N., et al., J. Exp. Med. 167, 2017-2077 (1988)]. It has been reported that more than 90% of the model animals die of myocardial infarction or renal failure within 8 months of birth [Ikehara, S., Metabolism and Disease, (Suppl) 26, 169-176 (1989)].
W/BF1 :(NZW×BXSB)F1 mice were used at the age of 14 weeks (purchased from Kiwa Experimental Animal). Groups of 10 mice were used in each experiment.
The mice in respective groups were given a diet (Oriental Yeast), which is usually given to this kind of mice, and water.
Compound 1 (Lot No. 9D87M) was used as suspended in a 0.5% solution of carborymethylcellulose (CMC, Cellogan). Compound 1 was administered to mice by oral garage in doses of 100 and 300 mg/kg body weight/day for 6 weeks from 14 weeks of age to 20 weeks of age according to the 5-day administration and 2-day cessation schedule. As a control, an untreated group was provided. […] Statistic analysis was performed by the generalized Wilcoxon test with respect to the untreated group.
In the figure, the ordinate represents the survival rate (%) and the abscissa represents the age in weeks (14 weeks to 20 weeks).

[2] = system: CMK cells (platelet-associated antigen, glycoprotein IIb/IIIa); assay: Expression of platelet-associated antigen of CMK cells (Plt-1 antibody); assay type: cell-based, human; conditions: 30 μg/ml
Method: Compound 1 was dissolved in 1N hydrochloric acid and diluted with fetal calf serum (FCS, Gibco) to give a 1 mg/ml solution. This solution was added to RPMI-1640 medium (Flow Laboratories) supplemented 10% FCS and the mixture was neutralized with 1N NaOH and adjusted to a concentration of 30 μg/ml before use.
CMK cells were established by T. Sato et al. from patients with acute megakaryocytic leukemia. They are known to react with anti-platelet antibodies (anti-glycoprotein IIb/IIIa antibody, anti-glycoprotein Ib antibody and Plt-1 antibody). Moreover, it has mega-karyocyte-like properties, such as formation of α granules and a demarcation membrane in the cytoplasm. Therefore, these cells have been used for the analysis of the growth and differentiation of megakaryocytes [Sato, T., et al., Exp. Hematol., 15, 495 (1987); Sunami, S., et al., Blood, 70., 368 (1987); Komatsu, N., et al., Blood, 74(1), 42-48 (1989); Fuse, A., et al., British J. Haematology, 77, 32-36 (1991); Acta Haematologia Japonica 53(2), 294-295, 317-318 (1990)].
CMK cells were supplied by Dr. Takelruki Sato at the Department of Pediatrics, Chiba University School of Medicine. The cells, 5×10^4 cells/ml, were cultured in RPMI-1640 medium supplemented 10% FCS and subcultured every four days.
CMK cells, 1×10^5 cells/ml, were incubated in 10% FCS-added RPMI-1640 medium, containing 30 μg/ml of Compound 1, for 4 days and the expression of platelet-associated antigen on the cell surface was determined by flow cytometry (Coulter) using FITC-labeled Plt-1 antibody (Coulter). The medium containing no Compound 1 was used as a solvent control.
For the analysis of cell surface antigen, 1×10^6 cells/100 μl of CFIK cells were taken into a tube (Fischer) and reacted with 5 μl of FITC-labeled Plt-1 antibody at 4° C. for 30 minutes. The reaction mixture was washed three times with phosphate buffer containing 0.1% bovine serum albumin and determined for the percentage positive cells and fluorescence intensity.
The above-mentioned Plt-1 antibody (Coulter) is an antibody recognizing the platelet-associated antigen, glycoprotein IIb/IIIa and has been reported to increase with differentiation or maturation of CMK cells [Komatsu, N., et al., Blood, 74(1), 42-48 (1989)].

[3] = system: acute hepatic failure model; assay: Effect on hepatic failure (heat-killed bacteria / LPS), survival; assay type: in vivo, Balb/c mice; conditions: for Survival rate: 7 days after LPS, untreated 0%, solvent 10%
Method: Heat-killed cells of P. aches (a gift from Dr. Mizoguchi, the Third Department of Internal Medicine, Osaka City University School of Medicine) were administered intravenously in a dose of 3 mg/body to male Balb/c mice (7 weeks old, purchased from Japan SLC). Seven days later; a solvent group (0.5% CMC, Dai-ichi Kogyo Seiyaku Co., Ltd) and an untreated group, as well as the test groups given 10 or 100 mg/kg of Compound 1 orally, were provided. One hour after administration of Compound 1, 5 μg/body of lipopolysaccharide (LPS, Sigma Co., Ltd.) was administered intravenously to induce acute hepatic failure.

PC12 cells = assay: Effect on PC12 cells (morphology, phase contrast microscope)
Method: PC12 cells subcultured in Dulbecco's modified Eagle's medium (D-MEM) supplemented with 5% heat-inactivated (56° C., 30 minutes) horse serum and 10% fetal calf serum (FCS) were transferred onto collagen-coatedplastic Petri dishes (35 mm in diameter) at a concentration of 6×10^4 cells/3 ml medium.

COc1ccc(C(=O)N2CCN(c3ccc4c(c3)CCC(=O)N4)CC2)cc1OC [Compound 1, 6-[4-(3,4-Dimethoxybenzoyl)-1-piperazinyl]-3,4-dihydrocarbostyril]
Deaths till 20 weeks of age ([1]; 100 mg/kg/day oral, untreated: two, one and three dead at 17, 18, 19 weeks): no death occurred
Animals found dead at 18 weeks of age ([1]; 300 mg/kg/day oral, groups of 10): two
Life-prolonging effect (in words) ([1]; 100 and 300 mg/kg/day oral): significant life-prolonging effect
Change in percentage of Plt-1 positive cells (in words) [2]: no change in the percentage of positive cells
Cell count ([2]; 4 days, solvent control 5.8): 3.2 10^5 /ml
Plt-1 percentage positive cells (%) ([2]; 4 days, solvent control 96.1): 96.5%
activity at 30 µg/mL ([2]; Homo sapiens, CMK, 96 h, 4 days, solvent control 100, read-out: Plt-1 mean fluorescence intensity (%)): 192%
fold induction at 30 µg/mL ([2]; Homo sapiens, CMK, read-out: Increase in expression of platelet-associated antigen): 2
Survival rate ([3]; 10 mg/kg oral): 30%
Survival rate ([3]; 100 mg/kg oral): 70%
Life-prolonging effect in acute hepatitis model (in words) ([3]; 10 and 100 mg/kg oral): dose-dependent and excellent life-prolonging effect
Cells with morphological changes induced (PC12 cells; 30 μg/ml, day 3): 30-50 % of the total cell population
Formation of nerve fiber-like processes (PC12 cells; 30 μg/ml, most prominent with FCS 0.3%, day 3): formation of nerve fiber-like processes; also recorded: formation of nerve-like processes is observed
Elongation of the process, combination of Compound 1 and NGF (PC12 cells; with NGF, 0.3% FCS, vs Compound 1 or NGF alone): promotes elongation of the process as compared with Compound 1 or NGF alone

Reference: patent publication US5672603A, “Apoptosis regulating composition” (Otsuka Pharmaceutical Co., Ltd., priority 1991, dated 1997)
